Assay: Solubility of triclosan in aqueous solutions, filtration methodology (filtrate analyzed for triclosan)
Type: physicochemical
Experimental: In the first set of experiments, the solubility of triclosan in the presence/ absence of KCl was measured using a filtration methodology in which the filtrate was analyzed for triclosan.
In the following experiments, triclosan solubility was measured with increasing concentrations of hydroxypropyl-beta-cyclodextrin (no SLS, no KCl).
In the next experiments, triclosan solubility was measured in the presence of hydroxypropyl-beta-cyclodextrin along with SLS and KCl.

Q: With Oc1cc(Cl)ccc1Oc1ccc(Cl)cc1Cl [Triclosan, 2,4,4′-trichloro-2′-hydroxy-diphenyl ether] as the compound, how does the Appearance (0% SLS - 0% (control)) read?
A: Suspension and no precipitate

Q: What about the Appearance (1.5% SLS - 0% KCl) of the same compound?
A: Suspension and no precipitate

Q: What about the Appearance (1.5% SLS - 3.75% KCl) of the same compound?
A: Turbid and thick precipitate

Q: And the “Triclosan solubility, %” value (Table 3, 0% SLS - 0% (control))?
A: 0.012%

Q: What about the “Triclosan solubility, %” value (Table 3, 1.5% SLS - 0% KCl) of the same compound?
A: 0.330%

Q: What about the “Triclosan solubility, %” value (Table 3, 1.5% SLS - 0% KCl, listed as triclosan) of the same compound?
A: increased the solubility

Q: And the “Triclosan solubility, %” value (Table 3, 1.5% SLS - 3.75% KCl)?
A: 0.110%

Q: And the “Triclosan solubility, %” value (Table 3, 1.5% SLS - 3.75% KCl, listed as triclosan)?
A: decreased solubility

Q: What about the “Triclosan solubility, %” value (Table 4, 0% HPβCD in water (no SLS, no KCl)) of the same compound?
A: 0.012%

Q: What about the “Triclosan solubility, %” value (Table 4, 10% HPβCD in water (no SLS, no KCl)) of the same compound?
A: 0.510%

Q: What about the “Triclosan solubility, %” value (Table 4, 15% HPβCD in water (no SLS, no KCl)) of the same compound?
A: 0.680%

Q: What about the “Triclosan solubility, %” value (Table 4, 20% HPβCD in water (no SLS, no KCl)) of the same compound?
A: 0.710%

Q: And the “Triclosan solubility, %” value (Table 5, 0% SLS)?
A: 0.012%

Q: What about the “Triclosan solubility, %” value (Table 5, 1.5% SLS - 3.75% KCl) of the same compound?
A: 0.011%

Q: And the “Triclosan solubility, %” value (Table 5, 1.5% SLS - 3.75 KCl - 10% HPbCD)?
A: 0.190%

Q: What about the “Triclosan solubility, %” value (Table 5, 1.5% SLS - 3.75 KCl - 20% HPbCD) of the same compound?
A: 0.380%

Q: What about the “triclosan solubility with increasing concentrations of hydroxypropyl-beta-cyclodextrin” value (no SLS, no KCl) of the same compound?
A: increased in a dose-dependent manner

Q: And the “triclosan solubility in the presence of hydroxypropyl-beta-cyclodextrin along with SLS and KCl” value (with SLS and KCl)?
A: increased solubility
